# Measured values as given in patent publication US12655150B2 (Cedilla Therapeutics, Inc., priority 2021, dated 2026).
# Test system: NCI-H226
# Assay: 72H TEAD Proliferation Assay (Cell Titer Glo 2.0)
# Format: cell-based
# Conditions: Homo sapiens, NCI-H226, 72 h, CTG 2.0, cell line not given (NCI-H226 responsive, NCI-H28 non-responsive)
# Procedure, shortened: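 Growth read-out is ATP luminescence (CellTiter-Glo 2.0) after 72 h compound exposure, corrected for no-CTG background and day-0 values, with GI50 from nonlinear regression. Sensitive line NCI-H226 (NF2-deficient); non-responsive NCI-H28 (NF2 wild type) distinguishes TEAD-driven from nonspecific growth inhibition.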
row,SMILES,GI50
1,"CC[C@H](CO)NC(=O)c1ccc2c(OC)cc(-c3ccc(C(F)(F)F)cc3C(F)(F)F)nc2c1 [I-338, (R)-2-(2,4-bis(trifluoromethyl)phenyl)-N-(1-hydroxybutan-2-yl)-4-methoxyquinoline-7-carboxamide]",1000 to 5000 nM
2,"O=C(O)c1ccc2c(N3CCCCC3)cc(-c3ccc(C(F)(F)F)cc3)nc2c1 [I-391, 4-(piperidin-1-yl)-2-(4-(trifluoromethyl)phenyl)quinoline-7-carboxylic acid]",1000 to 5000 nM
3,"O=C(O)c1ccc2c(-c3cnco3)cc(-c3ccc(C(F)(F)F)cc3)nc2c1 [I-389, 4-(oxazol-5-yl)-2-(4-(trifluoromethyl)phenyl)quinoline-7-carboxylic acid]",≤ 1000 nM
4,"C=CC(=O)NCc1cc2cc(F)ccc2c(-c2ccc(C(F)(F)F)cc2)n1 [I-299, N-((6-fluoro-1-(4-(trifluoromethyl)phenyl)isoquinolin-3-yl)methyl)acrylamide]",≤ 1000 nM
5,"C=CC(=O)NCc1cc2cccc(F)c2c(-c2ccc(C(F)(F)F)cc2)n1 [I-289, N-((8-fluoro-1-(4-(trifluoromethyl)phenyl)isoquinolin-3-yl)methyl)acrylamide]",≤ 1000 nM
6,"C=CC(=O)NCc1cn2ccnc2c(OCc2cccc(C(F)(F)F)c2)n1 [I-294, N-((8-((3-(trifluoromethyl)benzyl)oxy)imidazo[1,2-a]pyrazin-6-yl)methyl) acrylamide]",1000 to 5000 nM
7,"O=C(O)c1ccc2c(c1)nc(N1CCC3(CCOC3)CC1)c1cccn12 [I-35, 4-(2-Oxa-8-azaspiro[4.5]decan-8-yl)pyrrolo[1,2-a]quinoxaline-7-carboxylic acid]",1000 to 5000 nM
8,"CC1CCN(c2nc3cc(C(=O)O)ccc3n3cccc23)CC1 [I-16, 4-(4-Methylpiperidin-1-yl)pyrrolo[1,2-a]quinoxaline-7-carboxylic acid]",1000 to 5000 nM
9,"Cc1cc(-c2ccc(C(F)(F)F)cc2)nc2cc(C(=O)NCCO)ccc12 [I-259, N-(2-hydroxyethyl)-4-methyl-2-(4-(trifluoromethyl)phenyl)quinoline-7-carboxamide]",≤ 1000 nM
10,"O=C(O)c1ccc2c(c1)nc(Oc1ccc(C(F)(F)F)cc1)c1cccn12 [I-23, 4-(4-(Trifluoromethyl)phenoxy) pyrrolo[1,2-a] quinoxaline-7-carboxylic acid]",≤ 1000 nM
11,"C=C(F)C(=O)NCc1cc2ccccc2c(-c2ccc(C(C)(C)C)cc2)n1 [I-215, N-((1-(4-(tert-butyl)phenyl)isoquinolin-3-yl)methyl)-2-fluoroacrylamide]",≤ 1000 nM
12,"C=CC(=O)Nc1c(C)nc2c(-c3ccc(C(C)(C)C)cc3)nccn12 [I-257, N-(8-(4-(tert-butyl)phenyl)-2-methylimidazo[1,2-a]pyrazin-3-yl)acrylamide]",5000 to 10000 nM
13,"CC(C)(C)c1ccc(-c2nc3cc(-c4nnc(N)o4)ccc3n3cccc23)cc1 [I-189, 5-(4-(4-(tert-butyl)phenyl)pyrrolo[1,2-a]quinoxalin-7-yl)-1,3,4-oxadiazol-2-amine]",5000 to 10000 nM
14,"Cc1cc2c(-c3ccc(C(F)(F)F)cn3)nc3cc(C(=O)O)ccc3n2c1 [I-405, 2-Methyl-4-(5-(trifluoromethyl)pyridin-2-yl)pyrrolo[1,2-a]quinoxaline-7-carboxylic acid]",≤ 1000 nM
15,COC(=O)c1ccc2c(c1)nc(-c1ccc(C(C)(C)C)cc1)c1cccn12 [Compound I-164],> 10000 nM
16,"CC(C)(C)c1ccc(-c2nc(/C=C/c3nnn[nH]3)cn3ccnc23)cc1 [I-155, (E)-6-(2-(1H-tetrazol-5-yl)vinyl)-8-(4-(tert-butyl)phenyl)imidazo[1,2-a]pyrazine]",> 10000 nM
17,"O=C(O)c1ccc2c(c1)nc(-c1ccc(C(F)(F)F)cc1)c1cccn12 [I-42, 4-(4-(Trifluoromethyl)phenyl)pyrrolo[1,2-a]quinoxaline-7-carboxylic acid]",≤ 1000 nM
18,"O=C(O)c1ccc2c(c1)nc(N1CCC(C(F)(F)F)C1)c1cccn12 (centres unmarked) [I-10, 4-(3-(Trifluoromethyl)pyrrolidin-1-yl)pyrrolo[1,2-a]quinoxaline-7-carboxylic acid]",1000 to 5000 nM
19,"C=CC(=O)NC(C)(CO)c1cn2ccnc2c(-c2ccc(C(F)(F)F)cc2)n1 (centres unmarked) [I-251, N-(1-hydroxy-2-(8-(4-(trifluoromethyl)phenyl)imidazo[1,2-a]pyrazin-6-yl)propan-2-yl)acrylamide]",≤ 1000 nM
20,"CC[C@H](CO)NC(=O)c1ccc2c(C3CC3)cc(-c3ccc(C(F)(F)F)cc3)nc2c1 [I-399, (R)-4-cyclopropyl-N-(1-hydroxybutan-2-yl)-2-(4-(trifluoromethyl)phenyl)quinoline-7-carboxamide]",≤ 1000 nM
21,"COc1cc(-c2ccc(C(F)(F)F)cc2)nc2cc(C(=O)N[C@@H](C)c3cccc(N)c3)ccc12 [I-350, (S)—N-(1-(3-aminophenyl)ethyl)-4-methoxy-2-(4-(trifluoromethyl)phenyl)quinoline-7-carboxamide]",≤ 1000 nM
22,"CC(C)(C)c1ccc(-c2ncn3cc(C(=O)O)ccc23)cc1 [I-144, 1-(4-(tert-Butyl)phenyl)imidazo[1,5-a]pyridine-6-carboxylic acid]",> 10000 nM

row,SMILES,GI50
1,"C=CC(=O)Nc1ccc2c(C)cc(-c3ccc(C(C)(C)C)cc3)nc2c1 [I-86, N-(2-(4-(tert-Butyl)phenyl)-4-methylquinolin-7-yl)acrylamide]",≤ 1000 nM
2,"COC[C@H](C)NC(=O)c1ccc2c(C)cc(-c3ccc(C(F)(F)F)cc3)nc2c1 [I-263, (S)—N-(1-methoxypropan-2-yl)-4-methyl-2-(4-(trifluoromethyl)phenyl)quinoline-7-carboxamide]",≤ 1000 nM
3,"Cc1nc(-c2ccc(C(F)(F)F)cc2)nc2cc(C(=O)N[C@H](C)CO)ccc12 [I-436, (R)—N-(1-hydroxypropan-2-yl)-4-methyl-2-(4-(trifluoromethyl)phenyl)quinazoline-7-carboxamide]",≤ 1000 nM
4,"COc1cc(-c2ccc(C(F)(F)F)cc2)nc2cc(S(N)(=O)=O)ccc12 [I-416, 4-Methoxy-2-(4-(trifluoromethyl)phenyl)quinoline-7-sulfonamide]",1000 to 5000 nM
5,"CNS(=O)(=O)c1ccc2c(c1)nc(-c1ccc(C(C)(C)C)cc1)c1cccn12 [I-310, 4-(4-(tert-butyl)phenyl)-N-methylpyrrolo[1,2-a]quinoxaline-7-sulfonamide]",1000 to 5000 nM
6,"C=CC(=O)NCc1cn2ccnc2c(Oc2ccc(C(F)(F)F)cc2)n1 [I-174, N-((8-(4-(trifluoromethyl)phenoxy)imidazo[1,2-a]pyrazin-6-yl)methyl)acrylamide]",≤ 1000 nM
7,"O=C(N[C@@H](CO)c1ccccc1)c1ccc2ccc(-c3ccc(C(F)(F)F)cc3)nc2c1 [I-428, (R)—N-(2-hydroxy-1-phenylethyl)-2-(4-(trifluoromethyl)phenyl)quinoline-7-carboxamide]",≤ 1000 nM
8,"C=CC(=O)NCc1nc(-c2ccc(C(F)(F)F)cc2)cn2ccnc12 [I-408, N-((6-(4-(trifluoromethyl)phenyl)imidazo[1,2-a]pyrazin-8-yl)methyl)acrylamide]",≤ 1000 nM
9,"O=C(O)c1ccc2c(c1)nc(C1CC1)c1nccn12 [I-70, 4-Cyclopropylimidazo[1,2-a]quinoxaline-7-carboxylic acid]",> 10000 nM
10,"CC(C)(C)c1ccc(-c2nc3cc(C(=O)O)ccc3n3ncnc23)cc1 [I-287, 4-(4-(tert-butyl)phenyl)-[1,2,4]triazolo[1,5-a]quinoxaline-7-carboxylic acid]",1000 to 5000 nM
11,"C=CC(=O)NCc1nc(-c2ccc(C(F)(F)F)cc2)c2ccc(F)cc2n1 [I-445, N-((7-fluoro-4-(4-(trifluoromethyl)phenyl)quinazolin-2-yl)methyl)acrylamide]",≤ 1000 nM
12,"Cc1ccc(-c2nc3cc(C(=O)O)ccc3n3cccc23)cc1 [I-45, 4-(p-Tolyl)pyrrolo[1,2-a]quinoxaline-7-carboxylic acid]",> 10000 nM
13,"C[C@H](CO)NC(=O)c1ccc2ccc(-c3ccc(C(F)(F)F)cc3)nc2c1 [I-427, (R)—N-(1-hydroxypropan-2-yl)-2-(4-(trifluoromethyl)phenyl)quinoline-7-carboxamide]",1000 to 5000 nM
14,"O=C(O)c1ccc2c(C3CC3)cc(-c3ccc(C(F)(F)F)cc3)nc2c1 [I-387, 4-cyclopropyl-2-(4-(trifluoromethyl)phenyl)quinoline-7-carboxylic acid]",≤ 1000 nM
15,"O=C(O)c1ccc2c(c1)nc(N1CCC3(CCC3)CC1)c1cccn12 [I-6, 4-(7-Azaspiro[3.5]nonan-7-yl)pyrrolo[1,2-a]quinoxaline-7-carboxylic acid]",≤ 1000 nM
16,"COCC(C)OC(=O)N1CCc2c(cccc2-c2ccc(C(F)(F)F)cc2)C1 (centres unmarked) [I-79, 1-Methoxypropan-2-yl 5-(4-(trifluoromethyl)phenyl)-3,4-dihydroisoquinoline-2(1H)-carboxylate]",1000 to 5000 nM
17,"Cc1cc2c(-c3ccc(C(C)(C)C)cc3)nc3cc(C(=O)O)ccc3n2c1 [I-83, 4-(4-(tert-Butyl)phenyl)-2-methylpyrrolo[1,2-a]quinoxaline-7-carboxylic acid]",1000 to 5000 nM
18,"CC(C)(C)c1ccc(-c2ncc3ccc(C(=O)O)cn23)cc1 [I-145, 3-(4-(tert-Butyl)phenyl)imidazo[1,5-a]pyridine-6-carboxylic acid]",> 10000 nM
19,"O=C(O)c1ccc2c(c1)nc(-c1ccc(C(F)(F)F)cc1F)c1nccn12 [I-60, 4-(2-Fluoro-4-(trifluoromethyl)phenyl)imidazo[1,2-a]quinoxaline-7-carboxylic acid]",1000 to 5000 nM
20,"CC(C)(C)C#Cc1nc2cc(C(=O)O)ccc2n2cccc12 [I-118, 4-(3,3-Dimethylbut-1-yn-1-yl)pyrrolo[1,2-a]quinoxaline-7-carboxylic acid]",> 10000 nM
21,"C=CC(=O)NCc1cn2c(F)cnc2c(-c2ccc(C(F)(F)F)cc2)n1 [I-235, N-((3-fluoro-8-(4-(trifluoromethyl)phenyl)imidazo[1,2-a]pyrazin-6-yl)methyl)acrylamide]",≤ 1000 nM
22,"O=C(O)c1ccc2c(c1)nc(N1CCCC(F)(F)C1)c1cccn12 [I-5, 4-(3,3-Difluoropiperidin-1-yl)pyrrolo[1,2-a]quinoxaline-7-carboxylic acid]",> 10000 nM
